Test [1] concerns P388 cells. The test can be described thus: P388 proliferation, Alamar Blue assay. The class given is cell-based, murine. The procedure: For this example, the Alamar Blue™ assay was performed as follows. Exponentially growing P388 cells were seeded into 96-well tissue culture plates (5×10^3 cells/100 μl/well) and cultured in RPMI 1640 medium supplemented with 10% fetal bovine serum for 16 h. Compounds (DMSO solution) were then added to each well at various concentrations, and the cells were cultured for an additional 48 h. Living cells were counted using Alamar Blue™ (BioSource International, Camarillo, Calif.), according to the method of Ahmed, S. A. et al., J. Immunol. Methods, 170, 211 (1994).
In general terms: Alamar Blue is a resazurin reagent that responds to reducing activity.

Test [2] has as its system Microtubule protein from bovine brain. The test can be described thus: Microtubule protein polymerization assay (turbidity). The class given is biochemical. On the procedure: Microtubule protein was prepared from bovine brain tissue by two cycles of assembly and disassembly according to the method of Tiwari, S. C. et al. Anal. Biochem, (1993), 215, 96-103. Tubulin was purified from microtubule protein by phosphocellulose chromatography see Algaier, J. et al. Biochim. Biophys. Acta, (1988), 954, 235-43, and tubulin purity was evaluated by polyacrylamide gel electrophoresis, as in Laemmli, U.K., Nature, (1970), […], 680-85. […] Protein concentrations were determined using the Coomassie® Protein Assay Reagent from Pierce (Rockford, Ill.).
Polymerization of microtubule protein was monitored by an increase in turbidity at 37° C. in microtubule assembly buffer containing 100 mM MES, 0.5 mM MgCl2, 1 mM EGTA and 1 mM GTP. See Johnson, K. A. et al., J. Mol. Biol., (1977), 117, 1-31. Polymerization of purified tubulin was measured using the same method except the microtubule assembly buffer contained 4 M glycerol. See Lee, J. C. et al., Biochemistry, (1975), 14, 5183-87. Microtubule protein and tubulin polymerization was initiated by a temperature shift from 0° C. to 37° C. and turbidity was measured on a DU-20 thermocontrolled spectrophotometer from Beckman (Fullerton, Calif.) at 360 nm. Drugs were dissolved in dimethyl sulfoxide (DMSO), which was used in all experiments at a final concentration of 2% (v/v).
For this example, the microtubule protein polymerization assay was performed as follows. Microtubule protein was prepared from bovine brain tissue by two cycles of assembly and disassembly. Polymerization of microtubule protein was monitored by an increase in turbidity at 37° C. in microtubule assembly buffer containing 100 mM MES, 0.5 mM MgCl2, 1 mM EGTA and 1 mM GTP. The polymerization of microtubule protein was initiated by a temperature shift from 0° C. to 37° C. Turbidity was measured on a thermo-controlled spectrophotometer (Beckman DU-20, Fullerton, Calif.) at 360 nm. Compounds were dissolved in DMSO, which was used in all experiments at a final concentration of 2% (v/v).

The test system of test [3] is microtubules in A549 cells. Kind of test: Immunofluorescence staining of microtubules. The class given is cell-based, human. Particulars: 6 hours incubation. On the procedure: Immunocytochemical staining was performed using the method described by Yahara, I. et al., Cell (1978) 15, 251-259. A549 cells were cultured on glass coverslips and incubated with the test drug for 6 hours. The cells were then fixed with 3.7% formaldehyde for 30 min, permeabilized with 0.2% Triton X-100 for 5 min, and incubated with a mouse monoclonal antibody against α-tubulin (Calbiochem®, Oncogene Research Products, Cambridge, Mass.), followed by incubation with fluorescein isothiocyanate-conjugated goat anti-mouse IgG from Cosmo Bio Co., (Tokyo, Japan), and the cells were examined under an immunofluorescent microscope.

The test system of test [4] is C. glabrata. The test can be described thus: Antifungal susceptibility testing, broth dilution (NCCLS M38-A). The class given is cell-based, Candida glabrata. The procedure: (§1) Antifungal susceptibility testing was accomplished according to the methods outlined in the National Committee for Clinical Laboratory Standards, M38-A “Reference Method for Broth Dilution Antifungal Susceptibility Testing of Conidium-Forming Filamentous Fungi; Approved Standard.” This includes testing in RPMI-1640 with glutamine and without bicarbonate, an inoculum size of 0.4-5×10^4, and incubation at 30 or 35° C. for 48 hours. […] Drug concentrations were 0.03-16 μg/ml for the investigational compounds, 0.015-8 μg/ml for itraconazole and griseofulvin.
(§2) The minimum lethal concentration (MLC) was determined by plating […] from the MIC concentration and each concentration above the MIC. […] When a MIC was obtained, a minimum fungicidal concentration (MFC) was determined to assess the fungistatic/fungicidal nature of the compound. […] The compound is scored as fungistatic if the cells are able to resume growth and fungicidal if no regrowth is possible because the compound had killed the organisms.
Background: Broth dilution looks for growth in wells or tubes with falling amounts of substance.

The test system of test [5] is C. albicans 90028. The test is described as above. Format: cell-based, Candida albicans. On the procedure:
as §1, §2

Test [6] concerns C. albicans 10231. The test is described as above. Format: cell-based, Candida albicans. The procedure: as §1, §2
Test [7] has as its system MES-SA DX (Taxol Resistant) human uterine sarcoma tumor cell line. The test can be described thus: Drug resistant cell line pair, cytotoxicity. Format: cell-based. The text has this: MES-SA (Taxol Sensitive) and MES-SA DX (Taxol Resistant). This cell line expresses elevated mdr-1 mRNA and P-glycoprotein (an extrusion pump mechanism). Pretreatment with cyclosporin-A (CsA) blocks P-glycoprotein and reinstates activity in the resistant cell line for those compounds for which the resistance is due to elevated P-glycoprotein.

Test [8] concerns HT-29 human colon tumor. The test can be described thus: HT-29 Human Colon Tumor Xenograft Model. Particulars: CPT-11 100 ip qwx3 alone; study 2139. Format: in vivo, nude mice. The procedure: Animals used were (exceptions are indicated for individual studies): female nude mice (nu/nu) between 5 and 6 weeks of age (˜20 g, Harlan); group size was 9-10 mice per group unless otherwise indicated. The selected novel compound was administered as monotherapy via the intraperitoneal (i.p.) route at the doses indicated for the individual study; for the combination studies the selected reference chemotherapy agents were injected 15-30 min prior to the compound. Vehicles used in these studies were: 12.5% DMSO, 5% Cremaphor and 82.5% peanut oil for the selected novel compounds; (1:3) Polysorbate 80:13% ethanol for taxotere; […] Saline dilutions are used to achieve the injection concentrations used for the reference compounds. Animals were implanted subcutaneously (s.c.) by trocar with fragments of HT-29 tumors harvested from s.c. growing tumors in nude mice hosts. […] CPT-11 was administered intraperitoneally on days 1, 8 and 15 (qw×3).

The mark [9] stands for this setting: Alamar Blue assay (Table 4), read-out: IC50 for P388 Proliferation.
[10] abbreviates: means (±SEM) of three experiments (Table 9), read-out: IC50 P388 proliferation.
Setting [11] is: microtubule protein 1.5 mg/mL (Table 9), read-out: IC50 Microtubule Protein polymerization.
Setting [12] is: microtubule protein 1.5 mg/ml (Table 4), read-out: IC50 for Microtubule Protein Polymerization.
Where [13] appears, read: Mus musculus, P388, means (±SEM) of three experiments (Table 9), read-out: IC50 P388 proliferation.

pIC50: −log10 of the molar value. Values after ≈ are worked out from the molar mass of the structure shown. Structures can show the parent of a compound that is named as a salt. Where two headings read alike, the source gives them in different places.

“(−)-Cyclo-[5-(1,1-dimethylpropyl)histidinyl-L-phenylalanine] [Compound 5]”: the pIC50 in test [1] (setting [9]), in test [1] (setting [10]), in test [2] (setting [11]) and in test [2] (setting [12]) was less than 3.70 in each case.

Consider `O=C1N[C@@H](Cc2cnc[nH]2)C(=O)N[C@H]1Cc1ccccc1` [Cyclo-His-Phe, reference compound], for which the pIC50 in test [1] (setting [9]), in test [1] (setting [10]), in test [2] (setting [11]) and in test [2] (setting [12]) was less than 3.70 each time.

Regarding `C=CC(C)(C)c1c(/C=C2\NC(=O)[C@H](Cc3ccccc3)NC2=O)ncn1C` [Compound 14, (−)-Cyclo-[(N^im-methyl-5-(1,-dimethyl-2-propenyl))dehydrohistidinyl-L-phenylalanine]], the pIC50 in test [1] (setting [13]) was 6.02; in test [2] (setting [11]), 4.00. In test [2], the “times less active than (−)-phenylahistin” value was “about 5 times”.

In the case of `C=CC(C)(C)c1c(C=C2C(=O)N(C)[C@@H](Cc3ccccc3)C(=O)N2C)ncn1C` [Compound 15, (−)-Cyclo-N, N′-dimethyl-[(N^im-methyl-5-(1,1-dimethyl-2-propenyl))dehydro-histidinyl-L-phenylalanine]], the pIC50 in test [1] (setting [10]) was 3.80; in test [2] (setting [11]) it was less than 3.70.

As usually defined, the MIC is the smallest concentration in the dilution series that meets the test's criterion for growth inhibition. For `COc1cc2c(c(OC)c1OC)-c1ccc(OC)c(=O)cc1[C@@H](NC(C)=O)CC2` [colchicine], the “microtubule structure (anti α-tubulin staining)” value in test [3] is recorded as “staining profile similar to that of (−)-PLH-treated cells”. The MIC in test [4] (Nakaseomyces glabratus) was greater than 128 µg/mL; in test [5] (Candida albicans, 90028), greater than 128 µg/mL; in test [6] (Candida albicans, 10231) it was greater than 128 µg/mL.

As to `COc1cccc2c1C(=O)c1c(O)c3c(c(O)c1C2=O)C[C@@](O)(C(=O)CO)C[C@@H]3O[C@H]1C[C@H](N)[C@H](O)[C@H](C)O1` [doxorubicin, reference compound], the “reduced susceptibility of the MES-SA DX cell line” value in test [7] was 34 fold.

With `COc1cc([C@@H]2c3cc4c(cc3[C@@H](O[C@@H]3O[C@@H]5CO[C@@H](C)O[C@H]5[C@H](O)[C@H]3O)[C@H]3COC(=O)[C@H]23)OCO4)cc(OC)c1O` [etoposide, reference compound], the “reduced susceptibility of the MES-SA DX cell line” value in test [7] was 60 fold.

As to “(+)-Cyclo-[5-(1,1-dimethylpropyl)dehydrohistidinyl-L-phenylalanine] [Compound 4]”, the pIC50 in test [1] (setting [9]) was 4.72; in test [1] (setting [10]), 4.72; in test [2] (setting [11]) it was less than 3.70; in test [2] (setting [12]), less than 3.70. The “inhibition percentage at 200 μM, microtubule protein polymerization” value (from here on “inhibition percentage at 200 μM”) in test [2] worked out at 12%.

Broadly, the MFC is the lowest tested concentration that kills the fungus rather than only halting it. Consider `CCCCNC(=O)n1c(NC(=O)OC)nc2ccccc21` [benomyl], for which the MIC came to 64 µg/mL (≈ 220 µM) in test [4] (Nakaseomyces glabratus, C. glabrata, 80% reduction in turbidity, read-out: MIC); 64 µg/mL (≈ 220 µM) in test [5] (Candida albicans, C. albicans 90028, 80% reduction in turbidity, read-out: MIC); 64 µg/mL (≈ 220 µM) in test [6] (Candida albicans, C. albicans 10231, 80% reduction in turbidity, read-out: MIC). Further, the MFC in test [4] (Nakaseomyces glabratus, C. glabrata, read-out: MFC) was greater than 512 µg/mL; in test [5] (Candida albicans, C. albicans 90028, read-out: MFC), greater than 512 µg/mL; in test [6] (Candida albicans, C. albicans 10231, read-out: MFC) it was greater than 512 µg/mL.

For the molecule `C[C@@H]1[C@H](O)[C@@H](C)/C=C/C=C/C=C/C=C/C=C/C=C/C=C/[C@H](O[C@@H]2O[C@H](C)[C@@H](O)[C@H](N)[C@@H]2O)C[C@@H]2O[C@](O)(C[C@@H](O)C[C@@H](O)[C@H](O)CC[C@@H](O)C[C@@H](O)CC(=O)O[C@H]1C)C[C@H](O)[C@H]2C(=O)O` [amphotericin B], the MFC came to 1 µg/mL (≈ 1.08 µM) in test [4] (C. glabrata), 0.5 µg/mL (≈ 0.541 µM) in test [5] (C. albicans 90028) and 0.5 µg/mL (≈ 0.541 µM) in test [6] (C. albicans 10231). Moreover, the MIC came out at 1 µg/mL (≈ 1.08 µM) in test [4] (C. glabrata, 80% reduction in turbidity); 0.5 µg/mL (≈ 0.541 µM) in test [5] (C. albicans 90028, 80% reduction in turbidity); 0.5 µg/mL (≈ 0.541 µM) in test [6] (C. albicans 10231, 80% reduction in turbidity).

With `CCc1c2c(nc3ccc(OC(=O)N4CCC(N5CCCCC5)CC4)cc13)-c1cc3c(c(=O)n1C2)COC(=O)[C@]3(O)CC` [CPT-11, irinotecan hydrochloride, reference compound], the “Chemotherapeutic Agent Result TGI %” value in test [8] was 32.7%.

Take `O=C1CNC(=O)C(Cc2ccccc2)N1` [Compound 7, Cyclo-[glycinyl-L-phenylalanine]]: the pIC50 in test [1] (Mus musculus, P388, Alamar Blue assay (Table 4), read-out: IC50 for P388 Proliferation) is less than 3.70; in test [2] (setting [12]) it was less than 3.70.

`O=C1NC(Cc2ccccc2)C(=O)NC1=Cc1c[nH]cn1` [Compound 19, Cyclo-[dehydrohistidinyl-L-phenylalanine]]: the pIC50 in test [1] (setting [13]) and in test [2] (setting [11]) was less than 3.70 throughout. The “inhibition percentage at 200 μM” value in test [2] is on record as 11%.

With `Cc1[nH]cnc1C=C1NC(=O)[C@H](Cc2ccccc2)NC1=O` [Compound 20, Cyclo-[(5-methyl)dehydrohistidinyl-L-phenylalanine]], the pIC50 in test [1] (setting [10]) was 4.82; in test [2] (setting [11]) it was less than 3.70. The “inhibition percentage at 200 μM” value in test [2] is listed as 9%.

Regarding “(−)-Cyclo-[5-(1,1-dimethylpropyl)dehydrohistidinyl-L-phenylalanine] [Compound 3]”, the pIC50 in test [1] (setting [9]) is 6.64; in test [1] (setting [10]), 6.64; in test [2] (setting [11]), 4.52; in test [2] (setting [12]), 4.52.

“(+)-Cyclo-[5-(1,1-dimethylpropyl)histidinyl-L-phenylalanine] [Compound 6]”: the pIC50 in test [1] (setting [9]), in test [1] (setting [10]), in test [2] (setting [11]) and in test [2] (setting [12]) was less than 3.70 throughout.

Source of the values: patent US20040102454A1, “Phenylahistin and the phenylahistin analogs, a new class of anti-tumor compounds” (priority 1998, published 2004).
